From patent US20240317744A1, “Bicyclic Ureas As Kinase Inhibitors” (Incyte Corporation, priority 2023, published 2024)

Assays:
[1] = target: T1, pseudo-kinase domain (JH2, amino-acids 536-812) of human V617F mutant JAK2 (Homo sapiens, UniProt O60674, F794H/V617F/W659A/W777A); experiment: JAK2 LanthaScreen JH2-V617F Binding Assay; conditions: JAK2 JH2-V617F 0.26 nM, 50 nM tracer, 1 hour at 25° C.; read-out: JH2 BIND V617F
T1 construct: pseudo-kinase domain (JH2, amino-acids 536-812 with 3 surface mutations W659A, W777A, F794H); His (C); purchased BPS Bioscience 79498; host or cells: baculovirus expression system
Method in brief: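 Biotinylated His-Avi-tagged JH2 protein was baculovirus-expressed and used at 0.26 nM. It was incubated with compound, 50 nM fluorescent JH2 tracer and 0.25 nM streptavidin-Tb for 1 h at 25 °C in pH 7.5 Tris buffer with MgCl2, BSA, DTT. Non-specific binding was defined with 2 mM ATP. IC50 came from four-parameter fits of TR-FRET signal.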

[2] = target: T2, catalytic domain (JH1, amino acids 826-1132) of human JAK2 (Homo sapiens, UniProt O60674); experiment: JAK2 LanthaScreen JH1 Binding Assay; conditions: JAK2 JH1 1.5 nM, 50 nM tracer, 2 hours at 25° C.; read-out: JH1 BIND
T2 construct: catalytic domain (JH1, amino acids 826-1132) of human JAK2; FLAG (N); biotin (biotinylated); purchased Carna Biosciences 08-445-20N; host or cells: baculovirus expression system
Method: Example A. JAK2 LanthaScreen JH1 Binding Assay
JAK2 JH1 binding assay utilizes catalytic domain (JH1, amino acids 826-1132) of human JAK2 expressed as N-terminal FLAG-tagged, biotinylated protein in a baculovirus expression system (Carna Biosciences, Product #08-445-20N). The assay was conducted in black 384-well polystyrene plates in a final reaction volume of 20 μL. JAK2 JH1 (1.5 nM) was incubated with compounds (100 nL serially diluted in DMSO) in the presence of 50 nM fluorescent JAK2-JH1 tracer and 0.5 nM Streptavidin-Tb cryptate (Cisbio Part #610SATLB) in assay buffer (50 mM Tris, pH=7.5, 10 mM MgCl2, 0.01% Brij-35, 0.1% BSA, 1 mM EGTA, 5% Glycerol and 5 mM DTT). Non-specific binding was accessed in the presence of 2 mM ATP. After incubation for 2 hours at 25° C., LanthaScreen signals were read on a PHERAstar FS plate reader (BMG LABTECH). Data was analyzed with IDBS XLfit and GraphPad Prism 5.0 software using a four parameter dose response curve to determine IC50 for each compound.

[3] = target: T3, pseudo-kinase domain (JH2, amino-acids 536-812) of human Wild Type JAK2 (Homo sapiens, UniProt O60674, F794H/W659A/W777A); experiment: JAK2 LanthaScreen JH2-WT Binding Assay; conditions: JAK2 JH2-WT 0.145 nM, 50 nM tracer, 1 hour at 25° C.; read-out: JH2 BIND WT
T3 construct: pseudo-kinase domain (JH2, amino-acids 536-812 with 3 surface mutations W659A, W777A, F794H); His (C); purchased BPS Bioscience 79463; host or cells: baculovirus expression system
Method: Example B. JAK2 LanthaScreen JH2-WT Binding Assay
JAK2 JH2-WT binding assay utilizes pseudo-kinase domain (JH2, amino-acids 536-812 with 3 surface mutations W659A, W777A, F794H) of human Wild Type JAK2 expressed as C-terminal His-Avi-tagged, biotinylated protein in a baculovirus expression system (BPS Bioscience, Catalog #79463). The assay was conducted in black 384-well polystyrene plates in a final reaction volume of 20 μL. JAK2 JH2-WT (0.145 nM) was incubated with compounds (100 nL serially diluted in DMSO) in the presence of 50 nM Fluorescent JAK2-JH2 Tracer (MedChem Express Catalog #HY-102055) and 0.25 nM Streptavidin-Tb cryptate (Cisbio Part #610SATLB) in assay buffer (50 mM Tris, pH=7.5, 10 mM MgCl2, 0.01% Brij-35, 0.1% BSA, 1 mM EGTA, 5% Glycerol and 5 mM DTT). Non-specific binding was accessed in the presence of 2 mM ATP. After incubation for 1 hour at 25° C., LanthaScreen signals were read on a PHERAstar FS plate reader (BMG LABTECH). Data was analyzed with IDBS XLfit and GraphPad Prism 5.0 software using a four parameter dose response curve to determine IC50 for each compound.

[4] = target: catalytic domain (JH1, amino acids 808-1132) of human JAK2 (Homo sapiens, UniProt O60674); experiment: JAK2 HTRF Enzyme Activity Assay; assay type: biochemical; conditions: ATP 30 µM, 60 minutes at 25° C.; read-out: V617F ENZ 30 UM
catalytic domain (JH1, amino acids 808-1132) of human JAK2, sequence (O60674 808-1132 limits assumed): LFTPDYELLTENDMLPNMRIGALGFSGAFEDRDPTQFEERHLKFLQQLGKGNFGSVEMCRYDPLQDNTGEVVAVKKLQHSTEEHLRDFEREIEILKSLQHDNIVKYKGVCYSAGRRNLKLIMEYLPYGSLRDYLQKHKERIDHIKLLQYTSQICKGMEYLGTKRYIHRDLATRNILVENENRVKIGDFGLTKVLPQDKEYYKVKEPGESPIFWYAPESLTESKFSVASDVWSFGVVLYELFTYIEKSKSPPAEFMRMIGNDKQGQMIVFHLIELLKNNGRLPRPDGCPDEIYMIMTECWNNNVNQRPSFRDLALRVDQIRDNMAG

T2 sequence (O60674 826-1132): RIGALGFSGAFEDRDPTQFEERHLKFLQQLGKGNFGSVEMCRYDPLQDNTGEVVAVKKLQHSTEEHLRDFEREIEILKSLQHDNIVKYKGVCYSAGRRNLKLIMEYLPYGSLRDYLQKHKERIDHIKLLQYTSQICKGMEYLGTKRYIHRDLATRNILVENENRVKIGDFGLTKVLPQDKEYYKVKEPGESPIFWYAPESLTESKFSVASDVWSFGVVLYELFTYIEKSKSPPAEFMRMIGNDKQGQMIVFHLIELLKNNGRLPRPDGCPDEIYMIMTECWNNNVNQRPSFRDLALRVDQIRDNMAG
T1 sequence (O60674 536-812 V617F/W659A/W777A/F794H): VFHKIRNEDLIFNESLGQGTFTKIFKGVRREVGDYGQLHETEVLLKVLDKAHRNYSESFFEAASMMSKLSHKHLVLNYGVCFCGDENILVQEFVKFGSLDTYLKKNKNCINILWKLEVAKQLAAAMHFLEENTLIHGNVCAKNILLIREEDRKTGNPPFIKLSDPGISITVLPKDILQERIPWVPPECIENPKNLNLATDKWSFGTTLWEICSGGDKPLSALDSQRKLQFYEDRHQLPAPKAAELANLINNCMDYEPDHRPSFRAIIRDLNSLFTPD
T3 sequence (O60674 536-812 W659A/W777A/F794H): as the sequence (O60674 536-812 V617F/W659A/W777A/F794H) above, with F82V counted along it

SMILES | IC50 [1] [nM] | IC50 [2] [nM] | IC50 [3] [nM] | IC50 [4] [nM]
COC(=O)N[C@@H]1CC[C@@H](n2c(=O)n(C)c3cnc(Nc4cc(C)cc(-c5ccnc(OC)c5)n4)cc32)C1 [Example 67, Methyl ((1R,3R)-3-(6-((2′-methoxy-4-methyl-[2,4′-bipyridin]-6-yl)amino)-3-methyl-2-oxo-2,3-dihydro-1H-imidazo[4,5-c]pyridin-1-yl)cyclopentyl)carbamate] | ≤ 10 | > 1000 | ≤ 10 | > 1000
COC(=O)N[C@@H]1CC[C@@H](n2c(=O)n(C)c3cnc(Nc4ccc(F)c(-c5ccc(OC(F)(F)F)cc5)n4)cc32)C1 [Example 73, Methyl ((1R,3R)-3-(6-((5-fluoro-6-(4-(trifluoromethoxy)phenyl)pyridin-2-yl)amino)-3-methyl-2-oxo-2,3-dihydro-1H-imidazo[4,5-c]pyridin-1-yl)cyclopentyl)carbamate] | 10 to 100 | > 1000 | 10 to 100 | > 1000
COC(=O)N[C@@H]1CC[C@@H](n2c(=O)n(C)c3cnc(Nc4cc(NC(=O)C5CCC5)cc(C5CCOCC5)c4)cc32)C1 [Example 19, Methyl ((1R,3R)-3-(6-((3-(cyclobutanecarboxamido)-5-(tetrahydro-2H-pyran-4-yl)phenyl)amino)-3-methyl-2-oxo-2,3-dihydro-1H-imidazo[4,5-c]pyridin-1-yl)cyclopentyl)carbamate] | ≤ 10 | > 1000 | ≤ 10 | > 1000
COC(=O)N[C@@H]1CC[C@@H](n2c(=O)n(C)c3cnc(Nc4ccc5ncc(-c6cnn(C)c6)n5n4)cc32)C1 [Example 34, Methyl ((1R,3R)-3-(3-methyl-6-((3-(1-methyl-1H-pyrazol-4-yl)imidazo[1,2-b]pyridazin-6-yl)amino)-2-oxo-2,3-dihydro-1H-imidazo[4,5-c]pyridin-1-yl)cyclopentyl)carbamate] | ≤ 10 | > 1000 | ≤ 10 | > 1000
[2H]C([2H])([2H])n1c(=O)n([C@@H]2CC[C@@H](NC(=O)OC)C2)c2cc(Nc3cc(C(=O)N4CCOCC4)c4cc(C)cc(C(F)(F)F)c4n3)ncc21 [Example 135, Methyl ((1R,3R)-3-(3-(methyl-d3)-6-((6-methyl-4-(morpholine-4-carbonyl)-8-(trifluoromethyl)quinolin-2-yl)amino)-2-oxo-2,3-dihydro-1H-imidazo[4,5-c]pyridin-1-yl)cyclopentyl)carbamate] | ≤ 10 | > 1000 | ≤ 10 | 500 to 1000
[2H]C([2H])([2H])n1c(=O)n([C@@H]2CC[C@@H](NC(=O)OC)C2)c2cc(Nc3cc(CN4CCOCC4)cc(-c4ccc5c(c4)OCCO5)n3)ncc21 [Example 74, Methyl ((1R,3R)-3-(6-((6-(2,3-dihydrobenzo[b][1,4]dioxin-6-yl)-4-(morpholinomethyl)pyridin-2-yl)amino)-3-(methyl-d3)-2-oxo-2,3-dihydro-1H-imidazo[4,5-c]pyridin-1-yl)cyclopentyl)carbamate] | ≤ 10 | > 1000 | ≤ 10 | > 1000
[2H]C([2H])([2H])n1c(=O)n([C@H]2CC[C@@](C)(NC(=O)C3CC3)CC2)c2cc(Nc3ccc4c(n3)c(-c3cnn(C(F)(F)F)c3)nn4CC(C)(C)O)ncc21 [Example 120, N-((1s,4s)-4-(6-((1-(2-Hydroxy-2-methylpropyl)-3-(1-(trifluoromethyl)-1H-pyrazol-4-yl)-1H-pyrazolo[4,3-b]pyridin-5-yl)amino)-3-(methyl-d3)-2-oxo-2,3-dihydro-1H-imidazo[4,5-c]pyridin-1-yl)-1-methylcyclohexyl)cyclopropanecarboxamide] | ≤ 10 | > 1000 | ≤ 10 | > 1000
COC(=O)N[C@@H]1CC[C@@H](n2c(=O)n(C)c3cnc(Nc4cccc(OC5CCOCC5)n4)cc32)C1 [Example 37, Methyl ((1R,3R)-3-(3-methyl-2-oxo-6-((6-((tetrahydro-2H-pyran-4-yl)oxy)pyridin-2-yl)amino)-2,3-dihydro-1H-imidazo[4,5-c]pyridin-1-yl)cyclopentyl)carbamate] | 10 to 100 | > 1000 | ≤ 10 | > 1000
COC(=O)N[C@@H]1CC[C@@H](n2c(=O)n(C)c3cnc(Nc4cc(-c5cnn(C)c5)cc(-c5cccc(C#N)c5)n4)cc32)C1 [Example 51, Methyl ((1R,3R)-3-(6-((6-(3-cyanophenyl)-4-(1-methyl-1H-pyrazol-4-yl)pyridin-2-yl)amino)-3-methyl-2-oxo-2,3-dihydro-1H-imidazo[4,5-c]pyridin-1-yl)cyclopentyl)carbamate] | 10 to 100 | > 1000 | ≤ 10 | > 1000
[2H]C([2H])([2H])n1c(=O)n([C@@H]2CC[C@@H](NC(=O)OC)C2)c2cc(Nc3cc(C(=O)N4CCOCC4)c4cccc(C(F)(F)F)c4n3)ncc21 [Example 52, Methyl ((1R,3R)-3-(3-(methyl-d3)-6-((4-(morpholine-4-carbonyl)-8-(trifluoromethyl)quinolin-2-yl)amino)-2-oxo-2,3-dihydro-1H-imidazo[4,5-c]pyridin-1-yl)cyclopentyl)carbamate] | ≤ 10 | 500 to 1000 | ≤ 10 | 500 to 1000
COC(=O)N[C@@H]1CC[C@@H](n2c(=O)n(C)c3cnc(Nc4cccc(N5CCC(N)C5)n4)cc32)C1 (stereo partly drawn) [Example 64, Methyl ((1R,3R)-3-(6-((6-(3-aminopyrrolidin-1-yl)pyridin-2-yl)amino)-3-methyl-2-oxo-2,3-dihydro-1H-imidazo[4,5-c]pyridin-1-yl)cyclopentyl)carbamate] | 10 to 100 | > 1000 | 10 to 100 | > 1000
[2H]C([2H])([2H])n1c(=O)n([C@@H]2CC[C@@H](NC(=O)OC)C2)c2cc(Nc3ccc(OC)c(-c4ncc(C(F)(F)F)s4)n3)ncc21 [Example 98, Methyl ((1R,3R)-3-(6-((5-methoxy-6-(5-(trifluoromethyl)thiazol-2-yl)pyridin-2-yl)amino)-3-(methyl-d3)-2-oxo-2,3-dihydro-1H-imidazo[4,5-c]pyridin-1-yl)cyclopentyl)carbamate] | ≤ 10 | > 1000 | ≤ 10 | > 1000
[2H]C([2H])([2H])n1c(=O)n([C@@H]2CC[C@@H](NC(=O)OC)C2)c2cc(Nc3cccc(-n4cc(C(F)(F)F)cn4)n3)ncc21 [Example 108, Methyl ((1R,3R)-3-(3-(methyl-d3)-2-oxo-6-((6-(4-(trifluoromethyl)-1H-pyrazol-1-yl)pyridin-2-yl)amino)-2,3-dihydro-1H-imidazo[4,5-c]pyridin-1-yl)cyclopentyl)carbamate] | ≤ 10 | > 1000 | ≤ 10 | > 1000
